Test results: patent US20080138437A1, “Antitumor Agent” (priority 2004, published 2008)
Where a name gives a salt, the structure may show the parent alone. Read-outs that look alike come from different tables or passages of the source.

Experiments:
[1] = system: 15 types of human cancer cells; assay: Cell growth inhibition test, MTT, average GI 50; format: cell-based; settings: average of 15 human cancer cell types, 48 hours exposure
Procedure: Appropriate amounts of each of the human cancer cells suspended in 5% fetal bovine serum-supplemented medium were plated into a 96-well plate, and allowed to adhere to the wells in a 37° C. CO2 incubator overnight.
These cancer cells were exposed to each anticancer agent for 48 hours. Cell growth was assayed by MTT. Absorbance of the control well (C) and the test well (T) was measured at 550 nm.
The absorbance of the test well immediately after adding the drug (TO) was also measured. Using these measured values, GI 50 of each drug was calculated, and the drug concentration at that time was obtained. For comparison, a similar test was performed for each of the anticancer agents (Comparative Tests 4-1 to 4-7).

[2] = in vivo; settings: BDF1, mouse, sc
[3] = system: A549 lung cancer cells; assay: Antitumor test, transplanted tumor in nude mice; format: in vivo, human; settings: control, drug without hydroxyapatite adsorption
From the text: (§1) (Experimental Test 5-1 to 5-5).
(§2) Female nude mice (7 weeks old, 16 to 22 g) with a BALB/c genetic background were used for the tests. Human cancer cells used for the tests were GCIY stomach cancer cells, HCT-15 colon cancer cells, A549 lung cancer cells, and OVCAR-3 ovarian cancer cells. Human cancer cells were subcutaneously transplanted into nude mice, tumor lumps were formed, and these carcinomas were used for the tests.
(§3) Aseptically collected tumors were sliced into tumors of 3×3×3 mm, and then subcutaneously transplanted into a new nude mouse. When the tumors reached a volume of 100 to 300 mm^3, the animals were arbitrarily divided into groups of six (Day 0). […] Intravascular administration was the administration route for all.
(§4) After administration, between Days 24 to 31, the length (L) and width (W) of the tumor lump of the animal were measured twice a week, and the tumor volume (TV) was calculated according to the following formula: TV=(L×W^2)/2. Antitumor effect was determined at Day 14. The relative tumor volume (RTV) was obtained by the following formula: RTV=TV14/TV0, using values of the tumor volume at Day 0 and Day 14 (referred to as TV0 and TV14). Antitumor effect was evaluated as the tumor regression rate at Day 14 (T/C%). Herein, T/C %=100×(average RTV of the treated group)/(RTV of the control group).
(§5) As a control, each drug was tested without hydroxyapatite adsorption (Comparative Tests 5-10 to 5-14).

[4] = system: GCIY stomach cancer cells; assay: Antitumor test, transplanted tumor in nude mice; format: in vivo, human; settings: control, drug without hydroxyapatite adsorption
From the text: as §1, §2, §3, §4, §5

[5] = system: HCT-15 colon cancer cells; assay: Antitumor test, transplanted tumor in nude mice; format: in vivo, human; settings: control, drug without hydroxyapatite adsorption
From the text: as §1, §2, §3, §4, §5

[6] = system: OVCAR-3 ovarian cancer cells; assay: Antitumor test, transplanted tumor in nude mice; format: in vivo, human; settings: control, drug without hydroxyapatite adsorption
From the text: as §1, §2, §3, §4, §5

[7] = system: C57BL/6 male mouse; settings: one-time, 14 days observation
[8] = in vivo; settings: male, C57BL/6, mouse
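Wherever deaths versus administered animals is given: mice given a single dose and followed for 14 days, with deaths tallied, LD50 derived from the doses given and the resulting death counts.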

Row | SMILES | GI50 [1] | LD50 [2] | Regression rate of transplanted cancer (T/C %) at Day 14 [3] | Regression rate of transplanted cancer (T/C %) at Day 14 [4] | Regression rate of transplanted cancer (T/C %) at Day 14 [5] | Regression rate of transplanted cancer (T/C %) at Day 14 [6] | deaths versus administered animals ([7]; 50 mg/kg intravascular) | deaths versus administered animals ([7]; 100 mg/kg intravascular) | deaths versus administered animals ([7]; 150 mg/kg intravascular) | deaths versus administered animals ([7]; 200 mg/kg intravascular) | deaths versus administered animals ([7]; 250 mg/kg intravascular) | deaths versus administered animals ([7]; 300 mg/kg intravascular) | deaths versus administered animals ([7]; 350 mg/kg intravascular) | deaths versus administered animals ([7]; 400 mg/kg intravascular) | LD50 [8] | deaths versus administered animals ([7]; 1.0 mg/kg intravascular) | deaths versus administered animals ([7]; 1.5 mg/kg intravascular) | deaths versus administered animals ([7]; 2.0 mg/kg intravascular) | deaths versus administered animals ([7]; 3.0 mg/kg intravascular) | deaths versus administered animals ([7]; 3.5 mg/kg intravascular)
1 | COc1cccc2c1C(=O)c1c(O)c3c(c(O)c1C2=O)C[C@@](O)(C(=O)CO)C[C@@H]3O[C@H]1C[C@H](N)[C@H](O)[C@H](C)O1 [Doxorubicin] | 72 nM | 10 mg/kg | – | – | – | – | – | – | – | – | – | – | – | – | – | – | – | – | – | –
2 | O=c1[nH]cc(F)c(=O)[nH]1 [Fluorouracil] | 36800 nM | – | 117% | 69% | 59% | 74% | 0/5 | 1/5 | 1/5 | 2/5 | 2/6 | 3/5 | 5/6 | 6/6 | 244 mg/kg | – | – | – | – | –
3 | Cc1ncc(CNC(=O)N(CCCl)N=O)c(N)n1 [Nimustine hydrochloride] | – | 50 mg/kg | – | – | – | – | – | – | – | – | – | – | – | – | – | – | – | – | – | –
4 | CC[C@]1(O)C[C@H]2CN(CCc3c([nH]c4ccccc34)[C@@](C(=O)OC)(c3cc4c(cc3OC)N(C=O)[C@H]3[C@@](O)(C(=O)OC)[C@H](OC(C)=O)[C@]5(CC)C=CCN6CC[C@]43[C@@H]65)C2)C1 [Vincristine sulfate] | 3.6 nM | – | 76% | 81% | 101% | 79% | – | – | – | – | – | – | – | – | 1.98 mg/kg | 0/5 | 2/5 | 3/8 | 7/8 | 8/8
